The record followed here is PubChem BioAssay AID516.

The test addresses Biliverdin reductase A (Homo sapiens) (UniProt P53004). Nature of the test: ligand binding to human biliverdin reductase A – biophysical, DSF, SYPRO orange, recombinant protein (AID 516). The settings on record: recombinant BLVRA, DSF thermal shift, at 10 µM, buffer 10 mM HEPES, pH 7.5, NaCl 150 mM, hits give high values.

Each structure is given as a SMILES string.

Biliverdin reductase A (Homo sapiens), sequence (P53004 whole entry, looked up): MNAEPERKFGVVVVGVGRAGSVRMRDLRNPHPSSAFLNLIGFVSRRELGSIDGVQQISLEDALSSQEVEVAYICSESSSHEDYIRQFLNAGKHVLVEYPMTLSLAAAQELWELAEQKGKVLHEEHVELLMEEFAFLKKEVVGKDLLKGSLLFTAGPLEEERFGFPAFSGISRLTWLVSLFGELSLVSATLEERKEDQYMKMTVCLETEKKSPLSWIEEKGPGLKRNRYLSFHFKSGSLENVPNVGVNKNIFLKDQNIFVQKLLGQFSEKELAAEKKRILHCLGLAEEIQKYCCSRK

In the case of `C=CC1=C(C)/C(=C/c2[nH]c(Cc3[nH]c(/C=C4\NC(=O)C(C)=C4C=C)c(C)c3CCC(=O)O)c(CCC(=O)O)c2C)NC1=O`, the Tm shift is 3.8 Celsius.
